Data from patent US9315475B2 (MERCK SHARP & DOHME CORP., priority 2011, dated 2016).

Molecular target: T1, wildtype HIV-1 protease (Human immunodeficiency virus type 1 group M subtype B, UniProt P04585)
T1 construct: the wildtype HIV-1 protease (which was expressed in Escherichia coli); made in house; host or cells: Escherichia coli
Experiment: Assay for inhibition of microbial expressed HIV protease (Pepcleav)
Format: biochemical
Conditions: wild type HIV-1 protease expressed in E. coli, peptide substrate, pH 5.5; mean of at least two independent experiments; read-out: Pepcleav
Method: Assay for Inhibition of Microbial Expressed HIV Protease (“Pepcleav”)
Studies of the inhibition of the wildtype HIV-1 protease (which was expressed in Escherichia coli) were carried out with a peptide substrate [Val-Ser-Gln-Asn-(βnaphthyl)Ala-Pro-Ile-Val (SEQ ID NO:1)]. The inhibitor is first preincubated with the HIV-1 protease (wild type) enzyme in assay buffer (50 mM sodium acetate, pH 5.5, 100 mM NaCl, and 0.1% BSA) for 30 minutes at room temperature. Substrate is added to 400 micromolar in a total volume of 20 microliters containing 20 picomolar HIV-1 protease (final) and the reaction is incubated for 1 hour at 30° C. The reaction is quenched with the addition of formic acid and indinavir to 0.012% and 150 nM final concentrations, respectively. The product formation is determined after separation of product and substrate on a Zorbax Eclipse XDB-C 18 column connected to an API 4000 mass spectrometer (Applied Biosystems) with multiple reaction monitoring (transitions were 644.5/428.9 and 615.4/422.2 (M1/M3) for product and indinavir respectively). The extent of inhibition of the reaction is determined from the peak area of the products.

Row | SMILES | IC50 [nM]
1 | COC(=O)N[C@H](C(=O)Nc1ccccc1CC[C@@H]1CN[C@H](CCCc2ccccc2)CO1)C(c1ccccc1)c1ccccc1 [Example 67, methyl{(1S)-1-(diphenylmethyl)-2-oxo-2-[(2-{2-[(2R,5R)-5-(3-phenylpropyl)morpholin-2-yl]ethyl}phenyl)amino]ethyl}carbamate] | 26
2 | COC(=O)N[C@H](C(=O)Nc1ccccc1CC[C@@H]1CN[C@H](COC(=O)NCc2ccc3nonc3c2)CO1)C(c1ccccc1)c1ccccc1 [Example 21, methyl N-[(1S)-1-benzhydryl-2-[[2-[2-[(2R,5S)-5-(2,1,3-benzoxadiazol-5-ylmethylcarbamoyloxymethyl)morpholin-2-yl]ethyl]phenyl]amino]-2-oxo-ethyl]carbamate] | 52
3 | COC(=O)N[C@H](C(=O)Nc1ccccc1CC[C@@H]1CN[C@H](COC(=O)N[C@H]2c3ccccc3C[C@H]2O)CO1)C(c1ccccc1)c1ccccc1 [Example 14, N-[2-(2-{(2R,5S)-5-[({[(1S,2R)-2-hydroxy-2,3-dihydro-1H-inden-1-yl]carbamoyl}oxy)methyl]morpholin-2-yl}ethyl)phenyl]-Nα-(methoxycarbonyl)-β-phenyl-L-phenylalaninamide] | 17
4 | C[C@H](Oc1c(F)cccc1NC(=O)[C@@H](N)C(c1ccc(F)cc1)c1ccc(F)cc1)[C@@H]1CN[C@H](COC(=O)NCc2ccc(F)cc2)CO1 [Example 195, 4-fluoro-N-(3-fluoro-2-{(1S)-1-[(2S,5S)-5-({[(4-fluorobenzyl)carbamoyl]oxy}methyl)morpholin-2-yl]ethoxy}phenyl)-β-(4-fluorophenyl)-L-phenylalaninamide] | 91
5 | COC(=O)N[C@H](C(=O)Nc1ccccc1CC[C@@H]1CN[C@H](CO)CO1)C(c1ccccc1)c1ccccc1 [Example 61, N-(2-{2-[(2R,5R)-5-(hydroxymethyl)morpholin-2-yl]ethyl}phenyl)-Nα-(methoxycarbonyl)-β-phenyl-L-phenylalaninamide] | 160
6 | N[C@H](C(=O)Nc1cncc(F)c1CC[C@@H]1CN[C@H](COC(=O)NC2(c3ccncc3)CCC2)CO1)C(c1ccc(F)cc1)c1ccc(F)cc1 [Example 194, 4-fluoro-β-(4-fluorophenyl)-N-(5-fluoro-4-{2-[(2R,5S)-5-({[(1-pyridin-4-ylcyclobutyl)carbamoyl]oxy}methyl)morpholin-2-yl]ethyl}pyridin-3-yl)-L-phenylalaninamide] | 100
7 | CCNC(=O)Nc1ccccc1CC[C@@H]1CO[C@H](CCc2ccccc2NC(=O)[C@@H](NC(=O)OC)C(c2ccccc2)c2ccccc2)CN1 [Example 77] | 15
8 | CCN(CC)C(=O)OC[C@@H]1CO[C@H](CCc2ccccc2NC(=O)[C@@H](NC(=O)OC)C(c2ccccc2)c2ccccc2)CN1 [Example 25] | 120
9 | COC(=O)N[C@H](C(=O)Nc1ccccc1CC[C@@H]1CN[C@H](CNC(=O)c2cccnn2)CO1)C(c1ccccc1)c1ccccc1 [Example 54, methyl N-[(1S)-1-benzhydryl-2-oxo-2-[[2-[2-[(2R,5R)-5-[(pyridazine-3-carbonyl-amino)methyl]morpholin-2-yl]ethyl]phenyl]amino]ethyl] carbamate] | 26
10 | COC(=O)N[C@H](C(=O)Nc1ccccc1CC[C@@H]1CN[C@H](CNC(=O)c2ccccc2Cl)CO1)C(c1ccccc1)c1ccccc1 [Example 55, methyl N-[(1S)-1-benzhydryl-2-[[2-[2-[(2R,5R)-5-[[(2-chloro-benzoyl)amino]methyl]morpholin-2-yl]ethyl]phenyl]amino]-2-oxo-ethyl]carbamate] | 30
11 | CCC[C@@H](c1ccccc1)[C@H](N)C(=O)Nc1cccc(F)c1CC[C@@H]1CN[C@H](COC(=O)NCc2ccc(F)cc2)CO1 [Example 199, (βS)-N-(3-fluoro-2-{2-[(2R,5S)-5-({[(4-fluorobenzyl)carbamoyl]oxy}methyl)morpholin-2-yl]ethyl}phenyl)-β-propyl-L-phenylalaninamide] | 41
12 | COC(=O)N[C@H](C(=O)Nc1ccccc1CC[C@@H]1CN[C@H](CNS(=O)(=O)c2ccccn2)CO1)C(c1ccccc1)c1ccccc1 [Example 48, methyl N-[(1S)-1-benzhydryl-2-oxo-2-[[2-[2-[(2R,5R)-5-[(2-pyridylsulfonylamino)methyl]morpholin-2-yl]ethyl]phenyl]amino]ethyl]carbamate] | 91
13 | COC(=O)N[C@H](C(=O)Nc1ccccc1CC[C@@H]1CN[C@H](C(=O)NCc2ccccc2)CO1)C(c1ccccc1)c1ccccc1 [Example 2, N-(2-{2-[(2R,5S)-5-(benzylcarbamoyl)morpholin-2-yl]ethyl}phenyl)-Nα-(methoxycarbonyl)-β-phenyl-L-phenylalaninamide] | 1.4
14 | COC(=O)N[C@H](C(=O)Nc1ccccc1CC[C@@H]1CN[C@H](C(=O)NCCc2ccccc2)CO1)C(c1ccccc1)c1ccccc1 [Example 6, Nα-(methoxycarbonyl)-β-phenyl-N-[2-(2-{(2R,5S)-5-[(2-phenylethyl)carbamoyl]morpholin-2-yl}ethyl)phenyl]-L-phenylalaninamide] | 9.9
15 | COC(=O)N[C@H](C(=O)Nc1ccccc1CC[C@@H]1CN[C@H](COC(=O)NCC2CC2)CO1)C(c1ccccc1)c1ccccc1 [Example 22, methyl N-[(1S)-1-benzhydryl-2-[[2-[2-[(2R,5S)-5-(cyclopropylmethylcarbamoyloxymethyl)morpholin-2-yl]ethyl]phenyl]amino]-2-oxo-ethyl]carbamate] | 58
16 | COC(=O)N[C@H](C(=O)Nc1ccccc1CC[C@@H]1CN[C@H](COC(=O)NC2CCC2)CO1)C(c1ccccc1)c1ccccc1 [Example 23, methyl N-[(1S)-1-benzhydryl-2-[[2-[2-[(2R,5S)-5-(cyclobutylcarbamoyloxymethyl)morpholin-2-yl]ethyl]phenyl]amino]-2-oxo-ethyl]carbamate] | 80
17 | COC(=O)N[C@H](C(=O)Nc1c(CC[C@@H]2CN[C@H](COC(=O)NCC(F)(F)F)CO2)ccnc1OC)C(c1ccccc1)c1ccccc1 [Example 35, Nα-(methoxycarbonyl)-N-(2-methoxy-4-{2-[(2R,5S)-5-({[(2,2,2-trifluoroethyl)carbamoyl]oxy}methyl)morpholin-2-yl]ethyl}pyridin-3-yl)-β-phenyl-L-phenylalaninamide] | 60
18 | COC(=O)N[C@H](C(=O)Nc1ccccc1CC[C@@H]1CN[C@H](Cn2cc(-c3ccccc3)nn2)CO1)C(c1ccccc1)c1ccccc1 [Example 64, Nα-(methoxycarbonyl)-β-phenyl-N-[2-(2-{(2R,5R)-5-[(4-phenyl-1H-1,2,3-triazol-1-yl)methyl]morpholin-2-yl}ethyl)phenyl]-L-phenylalaninamide] | 56
19 | COC(=O)N[C@H](C(=O)Nc1ccccc1CC[C@@H]1CN[C@H](COC(=O)NCc2ccc(F)cc2)CO1)C(c1ccccc1)c1ccccc1 [Example 16, methyl N-[(1S)-1-benzhydryl-2-[[2-[2-[(2R,5S)-5-[(4-fluorophenyl)methylcarbamoyloxymethyl]morpholin-2-yl]ethyl]phenyl]amino]-2-oxo-ethyl]carbamate] | 5.9
20 | COC(=O)N[C@H](C(=O)Nc1ncccc1CC[C@@H]1CN[C@H](COC(=O)NCc2ccc(F)cc2)CO1)C(c1ccccc1)c1ccccc1 [Example 32, N-(3-{2-[(2R,5S)-5-({[(4-fluorobenzyl)carbamoyl]oxy}methyl)morpholin-2-yl]ethyl}pyridin-2-yl)-Nα-(methoxycarbonyl)-β-phenyl-L-phenylalaninamide] | 21
